Calls of active or inactive are those of the source.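 The calls were made as follows: active = mean EC50, the dose giving half of full activation, below a set limit (actives reach about 84 µM in these data); inactive = the rest.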
biological target: Alkaline phosphatase, placental type (Homo sapiens) (UniProt P05187); assay: activation of placental alkaline phosphatase – biochemical, uHTS hits, luminescence, selectivity assay for human IAP activator project, dose response (AID 488888); conditions: purified PLAP, CDP-Star luminescence, 30 min
Sequence (P05187 whole entry, looked up): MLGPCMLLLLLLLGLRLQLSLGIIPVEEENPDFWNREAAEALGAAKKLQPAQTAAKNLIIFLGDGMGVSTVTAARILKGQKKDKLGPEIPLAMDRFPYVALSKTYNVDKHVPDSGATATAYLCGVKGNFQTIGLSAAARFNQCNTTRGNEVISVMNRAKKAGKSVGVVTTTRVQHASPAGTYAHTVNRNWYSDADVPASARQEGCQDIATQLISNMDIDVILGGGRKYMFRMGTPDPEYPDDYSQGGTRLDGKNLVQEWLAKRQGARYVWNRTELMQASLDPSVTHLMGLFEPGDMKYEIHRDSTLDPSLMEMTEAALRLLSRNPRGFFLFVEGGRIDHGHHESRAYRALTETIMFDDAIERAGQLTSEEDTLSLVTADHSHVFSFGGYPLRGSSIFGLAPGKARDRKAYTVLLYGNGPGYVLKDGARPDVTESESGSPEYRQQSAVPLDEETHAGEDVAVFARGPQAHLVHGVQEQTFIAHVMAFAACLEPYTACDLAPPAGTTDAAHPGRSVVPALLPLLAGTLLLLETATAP

SMILES	EC50
Cc1cc(Br)ccc1SCC(=O)OC/C(O)=C(\C#N)c1nc2ccccc2[nH]1	25.5 µM
Cc1cc(C)cc(CC(Cc2nc3ccccc3[nH]2)c2nc3ccccc3[nH]2)c1 (centres undefined)	82.7 µM
C=CCn1c(O)c(N=Nc2ccccc2O)c2ccccc21	0.663 µM
Cc1ccccc1CN1CCC(n2nccc2NC(=O)CCCc2ccccc2)CC1	75.2 µM
Cc1[nH]n(-c2nc(-c3ccccc3)cc(=O)[nH]2)c(=O)c1CCO	30.8 µM
Cc1cccc(-n2ncc3c(NNC(=O)c4ccco4)ncnc32)c1	9.19 µM
CC(NC(=S)NC1CCC(C(C)(C)C)CC1)c1ccccc1 (centres undefined)	41.1 µM
CC(NS(=O)(=O)c1ccc(Br)cc1)C(=O)Nc1nc2ccccc2[nH]1 (centres undefined)	14.7 µM
CCOc1cccc(-c2nc(C(N)=O)c3[nH]c(=O)n(-c4cccc(Cl)c4)c3n2)c1O	1.91 µM
O=Nc1[nH]c(=O)c(/C=C(\O)c2ccccc2)nc1NO	9.75 µM
COc1cc(OC)cc(C(=O)NNC(=O)c2nn(C)c(=O)c3ccccc23)c1	13.9 µM
Cc1ccc(NC(=O)NNC(=O)c2cc3ccccc3cc2O)cc1	15.3 µM
COc1ccc(O)c(/C=N/NC(=S)NCCc2ccccc2)c1	19.1 µM
CCOc1cc(/C=N/NC(=O)C(=O)N/N=C/c2ccc(O)c(OCC)c2)ccc1O	70 µM
O=C(Cc1ccc(Cl)c(Cl)c1)NNC(=S)NCC1CCCO1 (centres undefined)	20.7 µM
c1ccc(-c2cccc(-c3ccccn3)n2)nc1	27.1 µM
O=c1oc(-c2ccc(O)c(O)c2)cc2cc(O)cc(O)c12	> 100 µM (inactive)
O=C(N/N=C/c1c(F)cccc1Cl)c1cc(C2CC2)[nH]n1	66.8 µM
CC(C)(C)OC(=O)N1CCC(NC(=O)c2[nH]cnc2C(=O)Nc2ccon2)CC1	15.2 µM

SMILES	EC50
Cc1nc(Nc2nc3c(c(=O)[nH]2)CCC3)nc2ccccc12	18.7 µM
COc1cc(NC(=O)NCC2CCN(Cc3ccccc3C)CC2)cc(OC)c1OC	78.9 µM
C=CCN1C(=O)C2(NNc3ccccc3O2)c2ccccc21 (centres undefined)	0.718 µM
NC(CO)C(=O)NNCc1ccc(O)c(O)c1O (centres undefined)	11.5 µM
O=C(/C=C/c1cccs1)NC(=S)NNC(=O)c1ccccc1O	12.7 µM
O=C(CCCCC(=O)NNC(=O)COc1ccccc1)NNC(=O)COc1ccccc1	12 µM
O=C(N/N=C/c1c(O)ccc2ccccc12)c1[nH]ncc1Br	11 µM
C[C@@H](NC(=O)c1[nH]cnc1C(=O)Nc1ccon1)c1ccccc1	19.8 µM
CN(Cc1ccccc1)C(=O)c1[nH]cnc1C(=O)Nc1nccs1	17.8 µM
O=c1c2ccccc2nc(N/N=C/c2c(O)ccc3ccccc23)n1O	35.2 µM
CC1C(=O)NN=C1C(=O)N/N=C\c1ccc(O)cc1O (centres undefined)	13.2 µM
CCOC(=O)c1cnc(-n2nc(C)cc2C)nc1NNc1nc(C)cc(C)n1	25 µM
CCOc1ccc(CC(=O)NNC(=S)NC2CCCCC2)cc1OCC	20.4 µM
Cc1nc2c3ccccc3nc(NNC(=O)CCC(=O)N3CCCC(C)C3)n2n1 (centres undefined)	13.5 µM
CSCCC(NS(=O)(=O)c1ccc(C)cc1)C(=O)NNC(=O)c1csc(N2CCOCC2)n1 (centres undefined)	16.1 µM
O=C(NNC(=S)NC(=O)c1ccccc1)c1cccnc1	18.7 µM
Cc1ccc(S(=O)(=O)NCCC(=O)NNC(=O)COc2ccc(Br)cc2)cc1C	16.7 µM
COc1ccccc1C1=NN(C2=NN=C(N)Cc3ncnn32)C(O)(C(F)(F)F)C1 (centres undefined)	12.3 µM
CCC(NC(=S)NC1CCCCC1)c1ccc(C(C)C)cc1 (centres undefined)	60 µM

SMILES	EC50
Cc1ccc(-c2cc(C(=O)N/N=C/c3ccccc3O)n[nH]2)o1	8.04 µM
CCn1nc(C)c(CN2CCC(C(=O)Nc3cccc(-c4cccc(F)c4)c3)CC2)c1C	53.7 µM
O=C(NNC(=S)NC(=O)c1ccccc1[N+](=O)[O-])c1ccccc1O	10.5 µM
Cc1nn(C)c(C(=O)NNC(=S)NCc2ccccc2)c1Cl	18.6 µM
Cn1c(/C(C#N)=C(\O)c2ccc(Br)s2)nc2ccccc21	62.2 µM
CN(C)S(=O)(=O)c1cccc(NC(=S)NNC(=O)c2cc3ccccc3cc2O)c1	13.5 µM
O=C(NNC(=S)NC1CCCCC1)c1ccccc1Br	16.4 µM
COc1cccc(/C=N\NC(=O)C2=NNC(=O)C2C)c1O (centres undefined)	7.82 µM
CCOCCCNC(=O)CCC(=O)NNc1nc2ccccc2c2nc(-c3ccccc3)nn12	19.1 µM
COc1cc(NC(=O)NCC2CCN(Cc3ccccc3Cl)CC2)cc(OC)c1OC	64.2 µM
COc1ccc(C2=NN(C3=NN=C(N)Cc4ncnn43)C(O)(C(F)(F)F)C2)cc1 (centres undefined)	14.4 µM
CC(C)Oc1ccc(CCC(=O)NNC(=S)NCc2ccccc2)cc1	21.2 µM
CCn1c(C)nc2cc(C(=O)N/N=C/c3cccc(O)c3O)ccc21	10.9 µM
Cc1ccc(O)c(/C=N/NC(=O)c2[nH]ncc2Br)c1	75.5 µM
CCOc1ccccc1CN1CCC(n2nccc2NC(=O)CCc2ccccc2)CC1	84 µM
CCCOCC(O)CC(CC)C(=O)NNC(=S)Nc1ccccc1 (centres undefined)	16.7 µM
COc1ccccc1CCNC(=O)C1CCN(c2nnc(C)c3c(C)n(-c4ccc(C)cc4)nc23)CC1	56 µM
O=C(O)C1OC(Oc2c(-c3ccc(O)c(O)c3)oc3cc(O)cc(O)c3c2=O)C(O)C(O)C1O (centres undefined)	> 100 µM (inactive)

Further lines, results first:

EC50	SMILES
13.6 µM	Cc1cc(=O)[nH]c(-n2[nH]c3c(c2=O)CCCC3)n1
18.7 µM	Cc1cc(C)cc(OCC(=O)NNC(=O)c2cc(C)[nH]n2)c1
0.55 µM	O=C1Nc2ccc(Br)cc2C12NNc1ccccc1O2 (centres undefined)
15.3 µM	CC1=NN(c2nc3ccccc3[nH]2)C(=O)/C1=C/N(C)C
35.9 µM	CC(C)(C)NC(=O)C(=O)NNC(=O)COc1ccccc1
23.1 µM	COc1ccc(OC)c(NC(=O)c2cc(-c3cc(C)ccc3O)n[nH]2)c1
13.4 µM	CCc1ccc(/C=N/Nc2ncnc3nc[nH]c23)cc1
23.2 µM	CCOC(=O)c1c(C)[nH]c(C(=O)N/N=C/c2cc([N+](=O)[O-])ccc2O)c1C
13.9 µM	Cc1nc2c3ccccc3nc(NNC(=O)CCC(=O)NCCC(C)C)n2n1
11.2 µM	CCOc1ccc(/C=N/NC(=O)c2[nH]ncc2Br)c(O)c1
14.5 µM	O=C(NN1C(=O)CSC1=S)C(=O)NN1C(=O)CSC1=S
19.5 µM	COc1ccccc1N(C)S(=O)(=O)c1ccc(Cl)c(C(=O)NNC(=O)c2ccccc2O)c1
14.7 µM	CCn1c(C)nc2cc(C(=O)NNC(=S)Nc3ccccc3)ccc21
69 µM	COc1ccccc1CN1CCC(n2nccc2NC(=O)CCCc2ccccc2)CC1
15.5 µM	O=C(Nc1ccon1)c1nc[nH]c1C(=O)NCc1ccccc1
15.6 µM	Cc1cccc(OCC(=O)NNC(=O)c2ccc3nc[nH]c3c2)c1
10.5 µM	OC(c1nc2ccc(F)cc2[nH]1)C(O)c1nc2ccc(F)cc2[nH]1 (centres undefined)
12.5 µM	CC(=O)Nc1cccc(C(=O)NNC(=O)c2n[nH]c(=O)c3ccccc23)c1
53.1 µM	Cc1cc(C(=O)NC2CC(C)(C)Cc3c2cnn3-c2ccccc2)n[nH]1 (centres undefined)
14.3 µM	Cc1ccsc1C(=O)NNC(=S)NC1CCCCC1
60.8 µM	Cc1cccc(CC(Cc2nc3ccccc3[nH]2)c2nc3ccccc3[nH]2)c1 (centres undefined)
17 µM	Cc1cc(OCC(=O)Nc2ncn[nH]2)ccc1Cl

EC50	SMILES
59.3 µM	CCC(C)(C)C1CCc2[nH]nc(C(=O)N/N=C(\C)c3ccco3)c2C1 (centres undefined)
78.1 µM	CC(C)n1cc(CN2CCC(C(=O)Nc3cccc(-c4cccc(Cl)c4)c3)CC2)cn1
12.5 µM	CSCCC(NS(=O)(=O)c1ccccc1F)C(=O)NNC(=O)c1csc(N2CCOCC2)n1 (centres undefined)
9.82 µM	CC(C)C(=O)NC(=S)Nc1ccccc1C(=O)Nc1ccccc1
25.3 µM	O=C(CCN1C(=O)/C(=C/c2ccccc2Cl)SC1=S)NNC(=O)c1ccccc1O
15.3 µM	Cc1nc2c3ccccc3nc(NNC(=O)CCC(=O)NCCN3CCN(c4ccccc4)CC3)n2n1
61.6 µM	CC(C)CC(=O)NC(=S)NNC(=O)c1ccc(NC(=O)C2CCCCC2)cc1
13.6 µM	O=C(NC(=S)NNC(=O)c1ccccc1O)c1ccc(F)cc1
13.7 µM	O=C(NNC(=S)NCc1ccco1)c1ccccc1Br
28.4 µM	CN(CC(=O)Nc1ccccc1F)CC(=O)Nc1ccc(F)c(F)c1F
88.3 µM	COc1ccccc1CNC(=O)CN(c1ccc(C)cc1)S(=O)(=O)c1c(C)noc1C
24.1 µM	CC(C)Oc1ccc(C(=O)Nc2ncn[nH]2)cc1
13.2 µM	Cc1nc(S/C(=C/c2ccc(-c3ccc(Cl)cc3)o2)C(=O)O)n[nH]1
16.4 µM	Cc1c(C(=O)N/N=C/c2c(O)ccc3ccccc23)nnn1-c1nonc1N
> 100 µM (inactive)	O=C(O)c1ccccc1C(=O)Nc1cc(-c2ccccc2)[nH]n1
71.6 µM	COc1ccc(CN2CCC(n3nccc3NC(=O)CCCc3ccccc3)CC2)cc1C
73.7 µM	CCN(CC)c1ccc(/C=N/NC(=O)c2nnn(-c3nonc3N)c2C(C)C)c(O)c1
5.73 µM	O=C(N/N=C/c1ccc(O)cc1O)C(=O)N/N=C/c1ccc(O)cc1O
42.3 µM	Cc1cccc(NS(=O)(=O)c2cccc(C(=O)NNC(=O)c3ccccc3O)c2)c1
81.4 µM	COc1cc(CN2CCC(n3nccc3NC(=O)CCCc3ccccc3)CC2)ccc1F
15.2 µM	O=c1cc(-c2ccccc2)[nH]n1-c1nc2ccccc2[nH]1

Source: PubChem BioAssay AID488888 (Sanford-Burnham Center for Chemical Genomics, 2010)
